Where two headings read alike, the source gives them in different places.
Tests used:
human telomerase = human telomerase (Homo sapiens, UniProt O14746); experiment: Telomerase inhibition, primer extension assay in HeLa cell extract; type: biochemical
sea urchin embryos = system: sea urchin embryos
Method: Lytechinus pictus sea urchins were purchased from Marinus Inc. (Long Beach, Calif.) and maintained at 15° C. in refrigerated aquaria containing Instant Ocean synthetic sea water, following a described procedure [Vafa, 1996 #300]. For polyspermic fertilization, 0.01 vol freshly prepared stock sperm suspension (25 ml ASW containing 2 ml undiluted semen) was added to the eggs suspended for 10 min at 1% concentration in ASW adjusted to pH 9.0 with NH4 OH and stirred at 60 rpm with motor-driven Teflon paddles. Ten min after insemination, the fertilized eggs were allowed to settle, and the supernatant ASW containing sperm was aspirated and replaced with fresh ASW. The embryos were cultured at 18° C. Twenty min after fertilization TMPyP4 or TMPyP4.Pt^II (100 μM final concentration) was added from a concentrated stock in DMSO to 1% embryo suspensions. Equivalent amounts of DMSO (final 0.1%) were added to control egg suspensions. At measured times after insemination, the embryos were pelleted by centrifugation and resuspended in Carnoy's fixative (ethanol:acetic acid, 3:1) for at least 1 hr. After fixation the embryos were pelleted and resuspended successively in: (1) ethanol:acetic acid, 1:1 for 5-15 min: (2) 45% acetic acid for 5-15 min; (3) room temperature 1 N HCl for 1-2 min: (4) 60° C. 1 N HCl for 7-8 min; (5) room temperature 1 N HCl for 1-2 min; (6) Schiffs reagent for 90-120 min; and (7) 45% acetic acid before affixing the embryos to microscope slides. Embryo samples were placed on microscope slides, covered with coverslips, and frozen on a bed of dry ice. After at least 30 min, the coverslips were popped off using a razor blade and the slides were immediately plunged into Coplin jars containing 95% ethanol for 5-10 min. The slides were then transferred to Coplin jars containing 100% ethanol for 3-5 min. After removing the slides and allowing them to air dry, the embryos were mounted with one drop Permount (Fisher) under a coverglass.
The inventors examined whether treatment of the embryos with G-quadroplex interactive agents can cause observable chromosomal abnormalities. A time course of the embryo development was followed in the presence of 10 μM and 100 μM concentrations of TMPyP4 or TMPyP4.Pt^II.

[1] = system: cultured human dermal fibroblasts; details: Georgiou et al., 1994, cited from earlier work
MCF-7 = experiment: Cytotoxicity (MTT) MCF-7; type: cell-based, human; details: Homo sapiens, MCF7; MCF-7 (breast), 4-7 days; read-out: IC 50 cytotoxicity
Method: (§1) The cells were cultured in the presence of the porphyrins incubator for 4-7 days and then treated with 3-(4,5-dimethylthiazol-2-yl)-2,5-diphenyl-tetrazolium bromide (MTT). Formazan concentration was quantitated by absorbance at 570 nm.

[2] = system: DNA quadruplex in single-stranded template with four telomeric repeats; experiment: DNA synthesis arrest assay (Taq DNA polymerase); type: biochemical
Method: This assay was a modification of that described by Weitzmann et al. (Wang and Patel, 1993). Briefly, primers (24 nM) labeled with [γ-^32 P] ATP were mixed with template DNA PQ74 (12 nM) in a Tris-HCl buffer (10 mM Tris, pH 8.0) containing 10 mM MgCl2 and heated at 90° C. for 4 min. After cooling at room temperature for 15 min, spermidine (to give 100 μM) and TMPyP4 (to give the concentrations indicated in the figure) were added. The primer extension reactions were initiated by adding dNTP (final concentration 100 μM) and Taq DNA polymerase (2.5 U/reaction, Boehringer Mannheim). The reactions were incubated at 55 C. (or otherwise as indicated) for 15 min, then stopped by adding an equal volume of stop buffer (95% formamide, 10 mM EDTA, 10 mM NaOH, 0.1% xylene cyanol, 0.1% bromophenol blue). The products were separated on a 12% polyacrylamide sequencing gel.
A single-stranded DNA template, which included four telomeric repeats, was taken, and an 18-base primer complementary to the […] was extended using Taq DNA polymerase.

Raji = experiment: Cytotoxicity (MTT) Raji; type: cell-based, human; details: Homo sapiens; Raji (lymphoma), 4-7 days; read-out: IC 50 cytotoxicity
Method: as §1

[3] = system: single-stranded sequence bearing four human telomeric repeats
Method: The DNA was labeled with 32p at the 5'-end and stored in buffer (10 mM Tris-HCl, 1 mM EDTA, pH 8.0) at 3000 cpm/μl. For each photocleavage reaction, 10 μl of DNA (~5 ng) was mixed with 10 μl of 200 mM KCl, boiled for 10 min, and cooled to room temperature. For the control studies, 10 μl of distilled water was added instead of the KCl solution. The mixtures were transferred to a 96 well plate, 2 μl of 1 μM aqueous TMPyP4 solution added, and the samples exposed to a 24 W fluorescent day-light under a glass filter for various periods of time. The reactions were stopped with 100 μl of calf thymus DNA (0.1 μg/μl), and after phenol-chloroform extraction, the samples were subjected to strand breakage treatment and ethanol precipitation (Han and Hurley, 1996).
A single-stranded sequence bearing four human telomeric repeats was treated with TMPyP4 and then exposed to light.

[4] = mice; cited from earlier work
PC3 = experiment: Cytotoxicity (MTT) PC3; type: cell-based, human; details: Homo sapiens, PC-3; PC3 (prostate), 4-7 days; read-out: IC 50 cytotoxicity
Method: as §1

in vitro = type: cell-based; details: human, hs578bst cells; HS578 Bst, Thy (n = 3 ± SEM); read-out: Cytotoxicity
Method: Cytotoxicity of the compounds to human breast cancer cells in vitro was assessed using a panel of cell lines representing estrogen receptor-positive (BT20, MCF-7m), and a pair of estrogen receptor-negative, transformed breast (11S578t) and normal breast (HS578Bst) cells.
Thy: tritiated […] assay (n = 3 ± SEM)

Daudi = experiment: cells; type: cell-based, human; details: Homo sapiens; Daudi (lymphoma), 4-7 days; read-out: IC 50 cytotoxicity
Method: as §1

BT-20 = experiment: Cytotoxicity (MTT) BT-20; type: cell-based, human; details: Homo sapiens; BT-20 (breast), 4-7 days; read-out: IC 50 cytotoxicity
Method: as §1

MCF7 cells = experiment: Cell cycle analysis in MCF7 cells; type: cell-based, human
Method: The effects of TMPyP4 on the cell cycle were assessed by flow cytometry by measuring the percentage of cells in G1/G0, S, and G2/M phases, with and without treatment with the porphyrin. Cells were stained with 50 μg/ml propidium iodide in a hypotonic sodium citrate solution with 0.3% NP-40 and 1.0 mg/ml RNase-A at 1.0×10^6 cells/ml, vortexed and stained for 30 min at room temperature in the dark. Prior to flow cytometric measurements, samples were filtered through a 37 μm nylon mesh into 12×75 mm tubes and stored at 4° C. until analysis within 24 h. All samples were analyzed with an EPICS ELITE flow cytometer (Coulter Cytometry, Miami, Fla.) using a 15 m Watt argon ion laser operated at 6 Amps of power at 488 nm for fluorochrome excitation. Photomultiplier tube voltage was adjusted for each control sample to position the G0G1 to channel 240 on a 1024 channel presentation. The propidium iodide emission was collected through a 675 nm long pass filter. Histograms were analyzed for cell cycle compartments using MultiCycle-PLUS Version 3.0 (Phoenix Flow Systems, San Diego, Calif.). Histograms all had 50K events collected to maximize the statistical validity of the compartmental analysis.
The inventors examined whether the treatment of MCF7 cells with TMPyP4 affected the cell cycle.

DU145 = experiment: Cytotoxicity (MTT) DU145; type: cell-based, human; details: Homo sapiens, DU-145; DU145 (prostate), 4-7 days; read-out: IC 50 cytotoxicity
Method: as §1

Sequence of human telomerase (O14746 whole entry): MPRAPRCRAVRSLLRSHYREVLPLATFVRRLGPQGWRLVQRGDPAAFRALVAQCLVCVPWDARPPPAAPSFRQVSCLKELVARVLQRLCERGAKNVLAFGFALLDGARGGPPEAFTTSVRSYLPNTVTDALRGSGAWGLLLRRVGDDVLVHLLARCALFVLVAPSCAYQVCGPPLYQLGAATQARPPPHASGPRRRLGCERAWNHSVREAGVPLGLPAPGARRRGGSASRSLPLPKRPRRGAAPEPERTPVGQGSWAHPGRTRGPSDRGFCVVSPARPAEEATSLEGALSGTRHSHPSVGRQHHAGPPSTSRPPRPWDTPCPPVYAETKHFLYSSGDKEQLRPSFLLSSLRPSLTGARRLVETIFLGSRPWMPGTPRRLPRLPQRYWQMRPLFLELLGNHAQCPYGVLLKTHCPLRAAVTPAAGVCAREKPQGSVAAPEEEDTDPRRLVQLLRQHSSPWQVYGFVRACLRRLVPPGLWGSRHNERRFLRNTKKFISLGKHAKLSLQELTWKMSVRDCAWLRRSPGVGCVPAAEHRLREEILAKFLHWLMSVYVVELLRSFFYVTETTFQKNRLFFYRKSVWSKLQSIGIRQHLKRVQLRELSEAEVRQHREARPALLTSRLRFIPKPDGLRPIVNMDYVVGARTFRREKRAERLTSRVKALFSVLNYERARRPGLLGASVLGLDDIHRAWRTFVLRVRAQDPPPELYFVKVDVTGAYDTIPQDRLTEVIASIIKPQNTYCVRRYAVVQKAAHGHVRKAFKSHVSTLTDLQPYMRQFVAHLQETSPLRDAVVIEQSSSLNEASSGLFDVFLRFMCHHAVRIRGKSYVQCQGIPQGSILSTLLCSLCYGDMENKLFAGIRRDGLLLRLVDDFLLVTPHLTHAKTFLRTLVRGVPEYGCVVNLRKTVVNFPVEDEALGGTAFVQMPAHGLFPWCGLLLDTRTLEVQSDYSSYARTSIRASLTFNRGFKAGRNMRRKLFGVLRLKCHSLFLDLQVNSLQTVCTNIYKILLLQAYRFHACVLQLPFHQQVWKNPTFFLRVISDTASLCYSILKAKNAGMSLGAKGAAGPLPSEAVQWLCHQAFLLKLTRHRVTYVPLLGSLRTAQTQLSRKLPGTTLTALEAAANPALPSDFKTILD

## C[n+]1ccc(-c2c3nc(c(-c4cc[n+](C)cc4)c4ccc([nH]4)c(-c4cc[n+](C)cc4)c4nc(c(-c5cc[n+](C)cc5)c5ccc2[nH]5)C=C4)C=C3)cc1 [TMPyP4, 5,10,15,20-tetra-(N-methyl-4-pyridyl)porphine]
Human telomerase; 25 µM
  % Inhibition of telomerase: 60%
Human telomerase; IC50 telomerase
  IC50: 6.5 ± 1.4 µM
Human telomerase; IC50 telomerase (text)
  IC50: 6.5 ± 1.4 µM
Human telomerase; Telomerase Inhibition
  IC50: 15 µM
Human telomerase; read-out: amount of inhibition of telomerase
  inhibition at 25 µM: 72%
Sea urchin embryos; 10 μM, 150 min after fertilization
  differences from controls in embryos: no definitive differences were seen
Sea urchin embryos; 100 μM
  condensed chromosome length / chromosomal effects: condensed chromosomes were longer than in the untreated controls
Sea urchin embryos; in vivo
  proliferation and mitosis in embryos: significantly decreases proliferative rates in the developing embryos and increases the percent of the cell in mitosis
  toxicity to embryos: generally non-toxic to the embryos
Sea urchin embryos; later time points
  cell number and morphology of embryos: fewer cells, many very misshapen and variable in size relative to the controls
Sea urchin embryos; treated embryos
  first signs of ciliary motility: 9 h
[1]
  uptake / nuclear accumulation: rapidly accumulate (within min) in the nuclei of cultured human dermal fibroblasts
[1]; listed as tetra(N-methyl-4-pyridyl)porphyrin
  uptake / nuclear accumulation: taken up by cells and localized in organelles known to contain DNA
MCF-7
  IC50: 49.6 µM
[2]
  melting temperature of the quadruplex: increased the melting temperature of the quadruplex
[2]; Tris buffer without K+ or Na+
  pause site band intensity: more intense in a concentration-dependent manner
[2]; temperature dependence
  persistence of bands at the pause site: up to 65 °C
Raji
  IC50: 11.9 µM
[3]
  photocleavage selectivity: clear selectivity for cleavage at the 5'-ApG-3' step at G1 and G7, and 5'-GpT-3' step at G6 and G12
[4]
  accumulation in tumor tissue: accumulation in tumor tissue in mice
PC3
  IC50: 184 µM
In vitro
  CC50: > 100 µM
Daudi
  IC50: 3.1 µM
BT-20
  IC50: 106 µM
MCF7 cells; 100 μM, days 4, 8 and 15
  G2/M phase fraction: time-dependent gradual increase in the G2/M phase
MCF7 cells; long-term exposure
  MCF7 cells arrested in G2/M: not more than 32%
DU145
  IC50: 93.6 µM

— patent US6087493A, “Porphyrin compounds as telomerase inhibitors” (Regents of the University of Texas System, priority 1998, dated 2000)
